Like-named read-outs stand apart in the source and are kept apart here.
Legend:
Assay in all cases: Determination of MIC values (BHI broth, 96 well microtiter plate)
Assay type in all cases: cell-based
[1] = system: methicillin-resistant Staphylococcus aureus (MRSA); details: BHI broth; for MIC: Staphylococcus aureus, read-out: MIC MRSA
In short: (§1)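 BHI broth microdilution; final compound 25, 12.5, 6.25, 3.125, 1.56, 0.78, 0.39, 0 µg/mL (1% DMSO). Inoculum 10^5–10^6 cells/mL; 37° C, ~7-10% CO2, ~16 h. MIC = lowest concentration, no observable growth.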

Streptococcus pneumoniae = details: BHI broth; for MIC: Streptococcus pneumoniae, read-out: MIC S. pneu
In short: as §1

[2] = system: vancomycin-resistant Enterococcus spp. (VRE); details: BHI broth; for MIC: Enterococcus, VRE, read-out: MIC VREF
In short: as §1

[3] = MRSA, 16 h, 37° C., about 16 hours
[4] = MRSA, 16 h, 37° C., overnight (about 16 hours)
[5] = 37° C., overnight (about 16 hours)
[6] = 16 h, 37° C., overnight (about 16 hours)

Row | Compound | MIC ([1]; MRSA, overnight 37° C.) | MIC (Streptococcus pneumoniae; S. pneu, overnight 37° C.) | MIC ([2]; VREF, overnight 37° C.) | other results
1 | NCc1ccc(CNC(=O)c2cc(-c3c[nH]c4ccc(Cl)cc34)nc3ccc(Br)cc23)cc1 [Example 229] | < 7 µg/mL | < 7 µg/mL | < 7 µg/mL | 
2 | Clc1ccc2nc(-c3c[nH]c4ccc(OCc5ccccc5)cc34)ccc2c1 [Example 289] | < 7 µg/mL | < 7 µg/mL | > 25 µg/mL | 
3 | CC(=O)Oc1cccc2[nH]cc(-c3cc(Cl)c4ccccc4n3)c12 [Example 351] | < 7 µg/mL | < 7 µg/mL | > 25 µg/mL | 
4 | NCc1cccc(CNC(=O)c2cc(-c3c[nH]c4ccc(Br)cc34)nc3c(F)cccc23)c1 [Example 257] | < 7 µg/mL | < 7 µg/mL | < 7 µg/mL | 
5 | Cn1cc(-c2cc(C(=O)NCCN)c3cc(Cl)ccc3n2)c2cc(Br)ccc21 [Example 370] | < 7 µg/mL | < 7 µg/mL | < 7 µg/mL | 
6 | OCc1[nH]c2ccc(Cl)cc2c1-c1cc(Cl)c2ccccc2n1 [Example 470] |  |  |  | MIC [1, 3]: > 25 µg/mL; MIC (Streptococcus pneumoniae; 37° C., about 16 hours): > 25 µg/mL; MIC ([2]; 16 h, 37° C., about 16 hours): > 25 µg/mL
7 | NCc1ccc(CNC(=O)c2cc(-c3c[nH]c4ccc(Br)cc34)nc3cc(Br)ccc23)cc1 [Example 138] |  |  |  | MIC [1, 4]: < 7 µg/mL; MIC (Streptococcus pneumoniae; [5]): < 7 µg/mL; MIC [2, 6]: < 7 µg/mL
8 | COc1ccc(NC(=O)c2cc(-c3c[nH]c4ccc(Br)cc34)nc3ccccc23)cc1 [Example 48] |  |  |  | MIC [1, 4]: < 7 µg/mL; MIC (Streptococcus pneumoniae; [5]): < 7 µg/mL; MIC [2, 6]: > 25 µg/mL
9 | NCc1ccc(CNC(=O)c2cc(-c3c[nH]c4ccc(Br)cc34)nc3ccc(C#CCN4CCc5ccccc5C4)cc23)cc1 [Example 240] | < 7 µg/mL | > 25 µg/mL | < 25 µg/mL | 
10 | Cn1cc(-c2cc(C(=O)NCc3ccc(CN)cc3)c3cc(C#CCNCCc4ccccc4)ccc3n2)c2cc(Br)ccc21 [Example 389] | < 7 µg/mL | < 25 µg/mL | < 7 µg/mL | 
11 | Cc1cc2nc(-c3c[nH]c4ccc(Br)cc34)cc(C(=O)NCc3ccc(CN)cc3)c2cc1C [Example 118] |  |  |  | MIC [1, 4]: < 7 µg/mL; MIC (Streptococcus pneumoniae; [5]): < 7 µg/mL; MIC [2, 6]: < 7 µg/mL
12 | O=C(Nc1ccc(O)cc1)c1cc(-c2c[nH]c3ccc(Br)cc23)nc2ccc(C(F)(F)F)cc12 [Example 171] |  |  |  | MIC [1, 4]: < 7 µg/mL; MIC (Streptococcus pneumoniae; [5]): < 7 µg/mL; MIC [2, 6]: < 7 µg/mL
13 | NCc1cccc(CNC(=O)c2cc(-c3cc4cc(Cl)ccc4[nH]3)nc3cc(I)ccc23)c1 [Example 311] | > 25 µg/mL | > 25 µg/mL | > 25 µg/mL | 
14 | NCc1ccc(/C=C/c2cc(-c3c[nH]c4ccc(Br)cc34)nc3cc(Br)ccc23)cc1 [Example 374] | < 7 µg/mL | < 7 µg/mL | < 7 µg/mL | 
15 | NC1CCCCC1NC(=O)c1cc(-c2c[nH]c3ccc(Br)cc23)nc2ccc(I)cc12 (stereo not drawn) [Example 112] |  |  |  | MIC [1, 4]: < 7 µg/mL; MIC (Streptococcus pneumoniae; [5]): < 7 µg/mL; MIC [2, 6]: < 7 µg/mL
16 | OCc1cc(-c2c[nH]c3ccc(Br)cc23)nc2cc(Cl)ccc12 [Example 492] |  |  |  | MIC MRSA ([1]; 37° C., about 16 hours): < 7 µg/mL; MIC S. pneu (Streptococcus pneumoniae; 37° C., about 16 hours): < 7 µg/mL; MIC VREF ([2]; 37° C., about 16 hours): <25 µg/mL
17 | CN(C)CCN(C)C(=O)c1cc(-c2cn(C)c3ccc(Br)cc23)nc2cc(Cl)ccc12 [Example 507] |  |  |  | MIC [1, 3]: < 7 µg/mL; MIC (Streptococcus pneumoniae; 37° C., about 16 hours): < 7 µg/mL; MIC ([2]; 16 h, 37° C., about 16 hours): < 7 µg/mL
18 | NCc1cc(-c2c[nH]c3ccc(Br)cc23)nc2cc(F)ccc12 [Example 509] |  |  |  | MIC [1, 3]: < 7 µg/mL; MIC (Streptococcus pneumoniae; 37° C., about 16 hours): < 7 µg/mL; MIC ([2]; 16 h, 37° C., about 16 hours): < 7 µg/mL
19 | NCc1cccc(CNC(=O)c2cc(-c3c[nH]c4cc(F)ccc34)nc3cc(F)ccc23)c1 [Example 494] |  |  |  | MIC [1, 3]: < 7 µg/mL; MIC (Streptococcus pneumoniae; 37° C., about 16 hours): < 7 µg/mL; MIC ([2]; 16 h, 37° C., about 16 hours): < 7 µg/mL
20 | COc1ccc2[nH]cc(-c3cc(Cl)c4ccccc4n3)c2c1 [Example 348] | < 7 µg/mL | < 7 µg/mL | > 25 µg/mL | 
21 | NCC1CCC(CNC(=O)c2cc(-c3c[nH]c4ccc(Br)cc34)nc3c(F)cccc23)CC1 (stereo not drawn) [Example 258] | < 7 µg/mL | < 7 µg/mL | < 7 µg/mL | 

Row | Compound | MIC ([1]; MRSA, overnight 37° C.) | MIC (Streptococcus pneumoniae; S. pneu, overnight 37° C.) | MIC ([2]; VREF, overnight 37° C.) | other results
22 | NCC1CCC(CNC(=O)c2cc(-c3c[nH]c4ccc(Br)cc34)nc3cc(Cl)cc(Cl)c23)CC1 (stereo not drawn) [Example 247] | < 7 µg/mL | < 7 µg/mL | < 7 µg/mL | 
23 | CN(C)CCN(C)C(=O)c1cc(-c2c[nH]c3ccc(Br)cc23)nc2ccc(I)cc12 [Example 499] |  |  |  | MIC [1, 3]: < 7 µg/mL; MIC (Streptococcus pneumoniae; 37° C., about 16 hours): < 7 µg/mL; MIC ([2]; 16 h, 37° C., about 16 hours): < 7 µg/mL
24 | Cc1[nH]c2ccc(Cl)cc2c1-c1ccc2cc(Cl)ccc2n1 [Example 384] | < 7 µg/mL | < 7 µg/mL | > 25 µg/mL | 
25 | NCc1ccc(CNC(=O)c2cc(-c3c[nH]c4ccc(Br)cc34)nc3ccccc23)cc1 [compound 9] |  |  |  | MIC [1, 4]: < 7 µg/mL; MIC (Streptococcus pneumoniae; [5]): < 7 µg/mL; MIC [2, 6]: < 7 µg/mL
26 | OCc1cc(-c2c[nH]c3ccc(Br)cc23)nc2cc(Br)ccc12 [Example 335] | < 7 µg/mL | < 7 µg/mL | < 7 µg/mL | 
27 | NCc1ccc(CNC(=O)c2cc(-c3c[nH]c4ccc(Br)cc34)nc3c(Cl)cccc23)cc1 [Example 143] |  |  |  | MIC [1, 4]: < 7 µg/mL; MIC (Streptococcus pneumoniae; [5]): < 7 µg/mL; MIC [2, 6]: < 7 µg/mL
28 | Cn1cc(-c2cc(C(=O)NCc3cccc(CN)c3)c3cc(Cl)ccc3n2)c2cc(Br)ccc21 [Example 366] | > 25 µg/mL | > 25 µg/mL | > 25 µg/mL | 
29 | Cn1cc(-c2ccc3cc(Cl)ccc3n2)c2ccc(Cl)cc21 [Example 219] | > 25 µg/mL | < 25 µg/mL | > 25 µg/mL | 
30 | NCCNC(=O)c1cc(-c2c[nH]c3ccc(Br)cc23)nc2c(F)cccc12 [Example 319] | < 7 µg/mL | < 7 µg/mL | < 25 µg/mL | 
31 | NCCCCNC(=O)c1cc(-c2c[nH]c3cc(F)ccc23)nc2cc(F)ccc12 [Example 496] |  |  |  | MIC [1, 3]: < 25 µg/mL; MIC (Streptococcus pneumoniae; 37° C., about 16 hours): < 25 µg/mL; MIC ([2]; 16 h, 37° C., about 16 hours): > 25 µg/mL
32 | N#Cc1ccc2[nH]cc(-c3ccc4cc(Cl)ccc4n3)c2c1 [Example 292] |  |  |  | MIC MRSA ([1]; MRSA, overnight 37° C.): > 25 µg/mL; MIC S. pneu (Streptococcus pneumoniae; S. pneu, overnight 37° C.): > 25 µg/mL; MIC VREF ([2]; VREF, overnight 37° C.): >25 µg/mL
33 | COc1ccc2nc(-c3c(C)[nH]c4ccc(C)cc34)ccc2c1 [Example 431] |  |  |  | MIC [1, 3]: > 25 µg/mL; MIC (Streptococcus pneumoniae; 37° C., about 16 hours): > 25 µg/mL; MIC ([2]; 16 h, 37° C., about 16 hours): > 25 µg/mL
34 | Clc1ccc2nc(-c3c[nH]c4ccc(Br)cc34)c3c(c2c1)OCC3 [Example 448] |  |  |  | MIC [1, 3]: < 7 µg/mL; MIC (Streptococcus pneumoniae; 37° C., about 16 hours): < 25 µg/mL; MIC ([2]; 16 h, 37° C., about 16 hours): > 25 µg/mL
35 | NCCCCCNC(=O)c1cc(-c2c[nH]c3cc(F)ccc23)nc2cc(F)ccc12 [Example 497] |  |  |  | MIC [1, 3]: < 25 µg/mL; MIC (Streptococcus pneumoniae; 37° C., about 16 hours): < 25 µg/mL; MIC ([2]; 16 h, 37° C., about 16 hours): < 25 µg/mL
36 | NCCNC(=O)c1cc(-c2c[nH]c3ccc(Br)cc23)nc2cc(Cl)ccc12 [Example 487] |  |  |  | MIC [1, 3]: < 7 µg/mL; MIC (Streptococcus pneumoniae; 37° C., about 16 hours): < 7 µg/mL; MIC ([2]; 16 h, 37° C., about 16 hours): < 7 µg/mL
37 | O=C(c1cc(-c2c[nH]c3ccc(Br)cc23)nc2ccc(I)cc12)N1CCCNCC1 [Example 117] |  |  |  | MIC [1, 4]: < 7 µg/mL; MIC (Streptococcus pneumoniae; [5]): < 7 µg/mL; MIC [2, 6]: < 7 µg/mL
38 | NCc1ccc(CNC(=O)c2cc(-c3c[nH]c4ccc(Br)cc34)nc3ccc(C#CCNCCc4ccc(Cl)cc4)cc23)cc1 [Example 235] | < 7 µg/mL | < 7 µg/mL | < 7 µg/mL | 
39 | NCC1CCCC(CNC(=O)c2cc(-c3c[nH]c4ccc(Br)cc34)nc3cc(Cl)cc(Cl)c23)C1 (stereo not drawn) [Example 248] | < 7 µg/mL | < 7 µg/mL | < 7 µg/mL | 
40 | Cn1cc(-c2cc(C(=O)NCc3ccc(CN)cc3)c3cc(C#CCNCC4CCCCC4)ccc3n2)c2cc(Br)ccc21 [Example 391] | < 7 µg/mL | < 7 µg/mL | < 7 µg/mL | 
41 | NCc1ccc(CNC(=O)c2cc(-c3c[nH]c4ccc(Br)cc34)nc3c(F)cccc23)cc1 [Example 256] | < 7 µg/mL | < 7 µg/mL | < 7 µg/mL | 
42 | Clc1ccc2nc(-c3c[nH]c4c(Cl)cccc34)ccc2c1 [Example 354] | > 25 µg/mL | > 25 µg/mL | > 25 µg/mL | 

From patent US6376670B1, “Quinoline-indole antimicrobial agents, uses and compositions related thereto” (Sepracor Inc., priority 1997, dated 2002)
